This passage reports EC50 and stoichiometry N results from PMC9271180 (Proceedings of the National Academy of Sciences of the …, 2022).

In one test the test system is HrtBA. To be noted: 2 mM ATP; lipid nanodiscs; 37 °C; activation of ATPase; site in HrtB dimer.
Test [1] concerns the target HrtB permease subunit of the heme efflux pump HrtBA from Corynebacterium diphtheriae (Corynebacterium diphtheriae NCTC13129). Kind of test: crystal structure.

Regarding `C=CC1=C(C)C2=Cc3c(C=C)c(C)c4[n]3[Fe+][n]3c(c(C)c(CCC(=O)O)c3=CC3=NC(=C4)C(C)=C3CCC(=O)O)=CC1=N2` [heme], a half-maximal response with HrtBA (EC50) required 900 nM.
“HrtB permease subunit of the heme efflux pump HrtBA from Corynebacterium diphtheriae (natural protein)”: the stoichiometry N (in general, a count of units in the complex or per binding partner) in test [1] came to 2.
